In ChEMBL document CHEMBL1817597, “Antifungal thiopeptide cyclothiazomycin B1 exhibits growth inhibition accompanying morphological changes via binding to fungal cell wall chitin” (Bioorg Med Chem, 2011):
Converted amounts (≈) assume the structure as drawn. The source made the active and inactive calls. The calls are words filed in the database; no cut-off is given here.

What was measured:
[1] = system: Staphylococcus aureus; assay: Antimicrobial activity against Staphylococcus aureus NCTC 8530 after 24 hrs by broth microdilution method; type: functional, organism-based
[2] = system: Micrococcus luteus; assay: Antimicrobial activity against Micrococcus luteus IFO 3333 after 24 hrs by broth microdilution method; type: functional, organism-based
[3] = system: Escherichia coli; assay: Antimicrobial activity against Escherichia coli IFO 3545 after 24 hrs by broth microdilution method; type: functional, organism-based
[4] = system: Saccharomyces cerevisiae; assay: Antimicrobial activity against Saccharomyces cerevisiae ATCC 7754 after 24 hrs by broth microdilution method; type: functional, organism-based
[5] = system: Schizosaccharomyces pombe; assay: Antimicrobial activity against Schizosaccharomyces pombe IFO 0342 after 24 hrs by broth microdilution method; type: functional, organism-based
[6] = system: Candida albicans; assay: Antimicrobial activity against Candida albicans IFO 1061 after 24 hrs by broth microdilution method; type: functional, organism-based
[7] = system: Rhodotorula mucilaginosa; assay: Antimicrobial activity against Rhodotorula mucilaginosa IFO 0001 after 24 hrs by broth microdilution method; type: functional, organism-based
[8] = system: Mucor javanicus; assay: Antimicrobial activity against Mucor javanicus IFO 4569 after 24 hrs by broth microdilution method; type: functional; settings: IFO 4569, 24 h
[9] = system: Fusarium oxysporum; assay: Antimicrobial activity against Fusarium oxysporum NBRC 5942 after 24 hrs by broth microdilution method; type: functional; settings: NBRC 5942, 24 h
[10] = system: Fusarium oxysporum; assay: Antimicrobial activity against Fusarium oxysporum IFO 7152 after 24 hrs by broth microdilution method; type: functional; settings: IFO 7152, 24 h
[11] = system: Penicillium chrysogenum; assay: Antimicrobial activity against Penicillium chrysogenum IFO 4626 after 24 hrs by broth microdilution method; type: functional; settings: IFO 4626, 24 h
[12] = system: Aspergillus fumigatus; assay: Antimicrobial activity against Aspergillus fumigatus IFO 5840 after 24 hrs by broth microdilution method; type: functional; settings: IFO 5840, 24 h
[13] = system: Rhizopus arrhizus; assay: Antimicrobial activity against Rhizopus oryzae IFO 4766 after 24 hrs by broth microdilution method; type: functional; settings: IFO 4766, 24 h
[14] = system: Mucor mucedo; assay: Antimicrobial activity against Mucor mucedo IFO 7684 at <6.55 uM after 24 hrs by broth microdilution method; type: functional, organism-based
[15] = system: Fusarium oxysporum; assay: Antimicrobial activity against Fusarium oxysporum NBRC 30700 at <6.55 uM after 24 hrs by broth microdilution method; type: functional, organism-based
[16] = system: Fusarium fujikuroi; assay: Antimicrobial activity against Gibberella fujikuroi NBRC 6349 at <6.55 uM after 24 hrs by broth microdilution method; type: functional, organism-based
[17] = system: Mucor mucedo; assay: Induction of morphological changes in Mucor mucedo IFO 7684 assessed as thickening of hyphae at MIC after 24 hrs by microscopic analysis; type: functional, organism-based
[18] = system: HL-60; assay: Cytotoxicity against human HL60 cells up to 65.5 uM after 24 hrs by Alamar blue assay; type: cell-based; settings: hl-60, 24 h
[19] = system: THP-1; assay: Cytotoxicity against human THP1 cells up to 65.5 uM after 24 hrs by Alamar blue assay; type: cell-based; settings: thp-1, 24 h
[20] = system: LLC-PK1; assay: Cytotoxicity against pig LLC-PK1 cells up to 65.5 uM after 24 hrs by Alamar blue assay; type: cell-based, Sus scrofa; settings: llc-pk1, 24 h
[21] = system: Mucor mucedo; assay: Antifungal activity against Mucor mucedo IFO 7684 under hyperosmotic shock at 0.026 uM after 2 days by paper disc method; type: functional, organism-based
[22] = system: Fusarium oxysporum; assay: Antifungal activity against Fusarium oxysporum NBRC 5942 under hyperosmotic shock at 0.026 uM after 2 days by paper disc method; type: functional, organism-based
[23] = system: Fusarium oxysporum; assay: Antifungal activity against Fusarium oxysporum NBRC 5942 under hypoosmotic shock assessed as increase of fragility of organism at 0.026 uM after 24 hrs measured after distilled water treatment for 10 mins by microscopic analysis; type: functional, organism-based
[24] = system: Mucor mucedo; assay: Inhibition of chitin synthase in Mucor mucedo IFO 7684 assessed as incorporation of GlcNAc from [14C]-UDP-GlcNAc into acid-insoluble fractions at 4 ug/ml after 55 mins by liquid scintillation counting
[25] = system: Mucor mucedo; assay: Inhibition of DNA synthesis in Mucor mucedo IFO 7684 assessed as [8-14C]-adenine uptake into acid-insoluble fractions at 0.13 uM after 25 mins by liquid scintillation counting; type: functional; settings: IFO 7684, 25 min
[26] = system: Mucor mucedo; assay: Inhibition of chitin synthase in germinated Mucor mucedo IFO 7684 assessed as incorporation of GlcNAc from [14C]-UDP-GlcNAc into acid-insoluble fractions at 2.61 uM after 60 mins by liquid scintillation counting relative to control
[27] = Binding affinity to chitosan at 6.55 uM after 30 mins by HPLC analysis
[28] = Binding affinity to curdlan at 6.55 uM after 30 mins by HPLC analysis
[29] = Binding affinity to chemically deacetylated chitin at 6.55 uM after 30 mins by HPLC analysis
[30] = system: Mucor mucedo; assay: Antimicrobial activity against Mucor mucedo IFO 7684 after 24 hrs by broth microdilution method in presence of 100 uM of PKA inhibitor H8; type: functional; settings: IFO 7684, 24 h
[31] = system: Mucor mucedo; assay: Induction of morphological changes in Mucor mucedo IFO 7684 assessed as thickening of hyphae at 0.026 uM after 24 hrs by microscopic analysis in presence of 100 uM of PKA activator dbcAMP; type: functional, organism-based

## C=C1NC(=O)[C@H]2CSC(=N2)c2csc(n2)-c2ccc3c(n2)[C@H](C)NC(=O)[C@@H]2CCCN2C(=O)/C(=C/C)NC(=O)CNC(=O)[C@H](CCCNC(=N)N)NC(=O)C(C)(NC(=O)/C(=C/C)NC(=O)C2CSC(=N2)[C@H](CC(N)=O)NC3=O)SC[C@@H](C(=O)O)NC(=O)[C@H]2CSC(=N2)c2csc(n2)-c2csc1n2 [CYCLOTHIAZOMYCIN B1]
[1]
  Activity: inactive
[2]
  Activity: inactive
[3]
  Activity: inactive
[4]
  Activity: inactive
[5]
  Activity: inactive
[6]
  Activity: inactive
[7]
  Activity: inactive
[8]
  MIC: 0.078 µg/mL (≈ 0.051 µM)
[9]
  MIC: 0.5 µg/mL (≈ 0.327 µM)
[10]
  MIC: 0.25 µg/mL (≈ 0.164 µM)
[11]
  MIC: 0.63 µg/mL (≈ 0.412 µM)
[12]
  MIC: > 1000 µg/mL
[13]
  MIC: > 1000 µg/mL
[14]
  Activity: inactive
[15]
  Activity: inactive
[16]
  Activity: inactive
[17]
  Activity: Active
[18]
  Activity: Non-toxic
[19]
  Activity: Non-toxic
[20]
  Activity: Non-toxic
[21]
  Activity: inactive
[22]
  Activity: inactive
[23]
  Activity: Active
[24]
  inhibition: inactive
[25]
  inhibition at 0.13 µM: 84%
[26]
  inhibition: 64%
[27]
  Activity: inactive
[28]
  Activity: inactive
[29]
  Activity: inactive
[30]
  MIC: 0.013 µM
[31]
  Activity: Active
